Measured values published in US20210317140A1, “Heterocyclic Compounds and Methods of Use” (MEDIVATION TECHNOLOGIES, INC, priority 2013, published 2021).

Assays:
ITK = biological target: T1, ITK (Homo sapiens, UniProt Q08881); assay: ITK kinase profiling (BTK protocol); format: biochemical; conditions: for ITK @ 0.3 μM (% Inh): 0.3 μM compound; for IC50: 10 dose IC50
T1 construct: purchased Reaction Biology Corporation
T1 sequence (Q08881 1-620): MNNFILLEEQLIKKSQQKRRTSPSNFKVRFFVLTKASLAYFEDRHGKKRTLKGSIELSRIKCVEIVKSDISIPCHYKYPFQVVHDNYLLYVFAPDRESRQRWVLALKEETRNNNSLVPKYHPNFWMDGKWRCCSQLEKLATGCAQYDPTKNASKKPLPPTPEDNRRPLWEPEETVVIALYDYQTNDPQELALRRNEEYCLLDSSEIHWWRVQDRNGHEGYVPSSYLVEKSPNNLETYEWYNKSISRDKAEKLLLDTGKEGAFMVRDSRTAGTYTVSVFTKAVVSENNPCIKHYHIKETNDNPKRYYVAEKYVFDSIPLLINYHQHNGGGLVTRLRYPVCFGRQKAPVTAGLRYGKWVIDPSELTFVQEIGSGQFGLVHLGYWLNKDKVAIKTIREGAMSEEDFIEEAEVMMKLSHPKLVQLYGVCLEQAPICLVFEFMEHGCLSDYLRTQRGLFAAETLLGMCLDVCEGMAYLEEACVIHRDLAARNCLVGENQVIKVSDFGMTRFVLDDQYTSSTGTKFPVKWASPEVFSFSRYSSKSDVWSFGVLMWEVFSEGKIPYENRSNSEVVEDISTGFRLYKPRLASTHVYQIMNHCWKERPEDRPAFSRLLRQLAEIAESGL
Description: BTK assay: In vitro profiling protein kinases was performed using the “HotSpot” assay platform. Briefly, specific kinase/substrate pairs along with required cofactors were prepared in reaction buffer. Compounds were prepared as 10 mM stock solutions in DMSO. Compounds were delivered into the reaction, followed 15-20 minutes later by addition of a mixture of ATP (Sigma, St. Louis Mo.) and ^33P ATP (Perkin Elmer, Waltham Mass.) to a final concentration of 10 μM. […] IC50 values and curve fits were obtained using Prism (GraphPad Software). Buffer Conditions: 20 mM Hepes (pH 7.5), 10 mM MgCl2, 1 mM EGTA, 0.02% Brij35, 0.02 mg/mL BSA, 0.1 mM Na3VO4, 2 mM DTT, 1% DMSO.

PI3Kγ = biological target: T2, PI3Kγ (Homo sapiens, UniProt P48736); assay: PI3Kγ isoform profiling (PI3Kδ protocol); format: biochemical; conditions: for PI3Kγ @ 0.3 μM (% Inh): 0.3 μM compound; for IC50: 10 dose IC50
T2 construct: purchased Reaction Biology Corporation
T2 sequence (P48736 whole entry, canonical isoform): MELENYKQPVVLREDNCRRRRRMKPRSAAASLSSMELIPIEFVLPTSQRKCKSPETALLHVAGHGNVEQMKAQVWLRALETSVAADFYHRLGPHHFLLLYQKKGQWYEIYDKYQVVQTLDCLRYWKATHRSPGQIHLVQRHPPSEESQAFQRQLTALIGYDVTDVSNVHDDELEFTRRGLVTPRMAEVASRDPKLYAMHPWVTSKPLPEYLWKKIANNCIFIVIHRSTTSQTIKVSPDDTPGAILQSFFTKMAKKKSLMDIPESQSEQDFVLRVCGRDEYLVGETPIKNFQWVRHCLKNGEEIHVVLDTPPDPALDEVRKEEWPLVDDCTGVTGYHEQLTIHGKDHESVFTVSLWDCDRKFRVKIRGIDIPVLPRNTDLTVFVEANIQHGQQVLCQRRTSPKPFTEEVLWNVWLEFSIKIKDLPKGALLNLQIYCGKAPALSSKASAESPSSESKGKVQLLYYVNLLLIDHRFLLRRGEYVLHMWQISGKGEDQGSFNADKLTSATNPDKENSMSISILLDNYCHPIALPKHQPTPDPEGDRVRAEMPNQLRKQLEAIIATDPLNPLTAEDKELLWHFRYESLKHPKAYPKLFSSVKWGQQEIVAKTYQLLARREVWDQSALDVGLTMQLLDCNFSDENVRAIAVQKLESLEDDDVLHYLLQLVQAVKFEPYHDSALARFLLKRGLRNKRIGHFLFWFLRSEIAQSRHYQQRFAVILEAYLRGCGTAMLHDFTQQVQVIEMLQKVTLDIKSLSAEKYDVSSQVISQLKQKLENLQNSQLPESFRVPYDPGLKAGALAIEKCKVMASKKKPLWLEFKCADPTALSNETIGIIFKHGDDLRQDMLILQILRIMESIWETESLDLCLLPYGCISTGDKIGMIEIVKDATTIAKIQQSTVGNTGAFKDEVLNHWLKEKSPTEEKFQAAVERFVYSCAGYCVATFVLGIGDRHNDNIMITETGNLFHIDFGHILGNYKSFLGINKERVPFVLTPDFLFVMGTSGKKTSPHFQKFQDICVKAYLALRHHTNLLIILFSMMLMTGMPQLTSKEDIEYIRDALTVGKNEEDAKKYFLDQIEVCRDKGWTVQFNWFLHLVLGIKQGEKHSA
Excerpt: PI3Kδ assay: The PIP3 product is detected by displacement of biotin-PIP3 from an energy transfer complex consisting of Europium labeled anti-GST monoclonal antibody, a GST-tagged pleckstrin homology (PH) domain, biotinylated PIP3 and Streptavidin-Allophycocyanin (APC). Excitation of Europium in the complex results in an energy transfer to the APC and a fluorescent emission at 665 nm. The PIP3 product formed by PI 3-Kinase(h) activity displaces biotin-PIP3 from the complex resulting in a loss of energy transfer and thus a decrease in signal. This is a 3-step reaction: First, the kinase reaction with PIP2 substrate is carried out in the presence of ATP (10 μM), and the reaction is quenched with stop Solution, and then finally detect by adding Detection Mixture followed by incubation (10 min). Reaction procedure: 1) Prepare substrate in freshly prepared Reaction Buffer. 2) Deliver kinase into the substrate solution and gently mix. 3) Deliver compounds in 100% DMSO (1 μM) into the kinase reaction mixture by Acoustic technology (Echo550; nanoliter range), incubate for 10 min at RT. 4) Deliver ATP into the reaction mixture to initiate the reaction. 5) Incubate for 30 min at 30° C. 6) Quench the reaction with Stop Solution. 7) Add Detection Mixture, and incubate for overnight. 8) Measure HTRF: Ex=320 nm, ratio of Em=615 nm and Em=665 nm. The emission ratio is converted into μM PIP3 production based on PIP3 standard curves. The nonlinear regression to obtain the standard curve and IC50 values are performed using Graphpad Prism software. Assay Buffer: HEPES 50 mM (pH7.0), NaN3 0.02%, BSA 0.01%, Orthovanadate 0.1 mM, 1% DMSO. Detection buffer: HEPES 10 mM (pH7.0), BSA 0.02%, KF 0.16 M, EDTA 4 mM. Substrate: 10 μM PIP2 substrate (PI(4,5)P2).
Compounds of the invention were profiled in a 10 dose IC50 panel against PI3Kα, PI3Kβ, and PI3Kγ kinases, provided by Reaction Biology Corporation, applied to the PI3Kδ protocol provided in Example B1.

Row | Compound | ITK @ 0.3 μM (% Inh) (ITK) | PI3Kγ @ 0.3 μM (% Inh) (PI3Kγ) | also measured
1 | Nc1ncnc2c1c(-c1ccc(F)c(O)c1)nn2C1CCc2ccccc2C1 (racemic) [Compound No. 26, 5-(4-amino-1-(1,2,3,4-tetrahydronaphthalen-2-yl)-1H-pyrazolo[3,4-d]pyrimidin-3-yl)-2-fluorophenol] | 2.15 % Inh | 38.75 % Inh | –
2 | Nc1ncnc2c1c(-c1ccc3cc[nH]c3c1)nn2C1CCc2ccccc2C1 (racemic) [compound 18, 3-(1H-indol-6-yl)-1-(1,2,3,4-tetrahydronaphthalen-2-yl)-1H-pyrazolo[3,4-d]pyrimidin-4-amine] | −3.29 % Inh | 19.7 % Inh | –
3 | Nc1ncnc2c1c(-c1cc(O)cc(F)c1)nn2C1CCc2ccccc2C1 (single isomer, unassigned) [6a, 3-(4-amino-1-(1,2,3,4-tetrahydronaphthalen-2-yl)-1H-pyrazolo[3,4-d]pyrimidin-3-yl)-5-fluorophenol] | – | – | ITK @ 0.3 μM (% Inh) (ITK; 0.3 µM): 4.58 % Inh; PI3Kγ @ 0.3 μM (% Inh) (PI3Kγ; 0.3 µM): 38.58 % Inh
4 | Nc1ncnc2c1c(-c1cc(O)cc(F)c1)nn2C1CCc2ccccc2C1 (single isomer, unassigned) [6b, 3-(4-amino-1-(1,2,3,4-tetrahydronaphthalen-2-yl)-1H-pyrazolo[3,4-d]pyrimidin-3-yl)-5-fluorophenol] | – | – | ITK @ 0.3 μM (% Inh) (ITK; 0.3 µM): 0.04 % Inh; PI3Kγ @ 0.3 μM (% Inh) (PI3Kγ; 0.3 µM): 45.57 % Inh
5 | C=CC(=O)N1CC(n2nc(-c3cc(O)cc(F)c3)c3c(N)ncnc32)Cc2cc(C)ccc21 (single isomer, unassigned) [31b, 1-(3-(4-amino-3-(3-fluoro-5-hydroxyphenyl)-1H-pyrazolo[3,4-d]pyrimidin-1-yl)-6-methyl-3,4-dihydroquinolin-1(2H)-yl)prop-2-en-1-one] | 6.31 % Inh | 14.76 % Inh | –
6 | Nc1ncnc2c1c(-c1ccc(F)c(O)c1)nn2C1CCc2ccccc2C1 (single isomer, unassigned) [Compound No. 26a, 5-(4-amino-1-(1,2,3,4-tetrahydronaphthalen-2-yl)-1H-pyrazolo[3,4-d]pyrimidin-3-yl)-2-fluorophenol] | – | – | IC50 (ITK): > 100 µM; IC50 (PI3Kγ): 0.405 µM
7 | Nc1ncnc2c1c(-c1ccc(F)c(O)c1)nn2C1CCc2ccccc2C1 (single isomer, unassigned) [Compound No. 26b, 5-(4-amino-1-(1,2,3,4-tetrahydronaphthalen-2-yl)-1H-pyrazolo[3,4-d]pyrimidin-3-yl)-2-fluorophenol] | – | – | IC50 (ITK): 51.6 µM; IC50 (PI3Kγ): 0.455 µM
8 | Nc1ncnc2c1c(-c1ccc(F)c(O)c1)nn2C1Cc2ccccc2C1 [Compound No. 29, 5-(4-amino-1-indan-2-yl-pyrazolo[3,4-d]pyrimidin-3-yl)-2-fluoro-phenol] | – | – | IC50 (ITK): > 100 µM; IC50 (PI3Kγ): 0.196 µM
9 | COc1cc(-c2nn(C3Cc4ccccc4C3)c3ncnc(N)c23)ccc1C [Compound No. 49, 1-(2,3-dihydro-1H-inden-2-yl)-3-(3-methoxy-4-methylphenyl)-1H-pyrazolo[3,4-d]pyrimidin-4-amine] | 6.31 % Inh | 30.41 % Inh | –
10 | Nc1ncnc2c1c(-c1ccc(Cl)c(O)c1)nn2C1Cc2ccccc2C1 [Compound No. 56, 5-[4-amino-1-(2,3-dihydro-1H-inden-2-yl)-1H-pyrazolo[3,4-d]pyrimidin-3-yl]-2-chlorophenol] | 8.82 % Inh | 62.17 % Inh | –
11 | Nc1ncnc2c1c(-c1cc(O)cc(F)c1)cn2C1Cc2ccccc2C1 [Compound No. 63, 3-[4-amino-7-(2,3-dihydro-1H-inden-2-yl)-7H-pyrrolo[2,3-d]pyrimidin-5-yl]-5-fluorophenol] | 3.68 % Inh | 33.44 % Inh | –
12 | COc1ccc(-c2nn(C3Cc4ccccc4C3)c3ncnc(N)c23)cc1O [Compound No. 68, 5-[4-amino-1-(2,3-dihydro-1H-inden-2-yl)-1H-pyrazolo[3,4-d]pyrimidin-3-yl]-2-methoxyphenol] | −6.84 % Inh | 51.6 % Inh | –
13 | Nc1ncnc2c1c(-c1cc(O)c(F)c(F)c1)nn2C1Cc2ccccc2C1 [Compound No. 81, 5-[4-amino-1-(2,3-dihydro-1H-inden-2-yl)-1H-pyrazolo[3,4-d]pyrimidin-3-yl]-2,3-difluorophenol] | 2.1 % Inh | 68.03 % Inh | –
14 | Nc1ncnc2c1c(-c1cc(F)c3c(c1)NCCO3)nn2C1Cc2ccccc2C1 [Compound No. 84, 1-(2,3-dihydro-1H-inden-2-yl)-3-(8-fluoro-3,4-dihydro-2H-1,4-benzoxazin-6-yl)-1H-pyrazolo[3,4-d]pyrimidin-4-amine] | −2.3 % Inh | 55.61 % Inh | –
15 | Nc1ncnc2c1c(-c1ccc(Cl)c(O)c1)cn2C1Cc2ccccc2C1 [Compound No. 93, 5-[4-amino-7-(2,3-dihydro-1H-inden-2-yl)-7H-pyrrolo[2,3-d]pyrimidin-5-yl]-2-chlorophenol] | 108.85 % Inh | 72.89 % Inh | –
16 | Nc1ncnc2c1c(-c1ccc(Cl)c(O)c1F)nn2C1Cc2ccccc2C1 [Compound No. 100, 3-[4-amino-1-(2,3-dihydro-1H-inden-2-yl)-1H-pyrazolo[3,4-d]pyrimidin-3-yl]-6-chloro-2-fluorophenol] | 112.3 % Inh | 57.52 % Inh | –
17 | Nc1ncnc2c1c(-c1cc(O)c(F)c(F)c1)cn2C1Cc2ccccc2C1 [Compound No. 101, 5-[4-amino-7-(2,3-dihydro-1H-inden-2-yl)-7H-pyrrolo[2,3-d]pyrimidin-5-yl]-2,3-difluorophenol] | −2.77 % Inh | 57.6 % Inh | –
18 | Nc1ncnc2c1c(-c1cc(O)c(F)c(C(F)(F)F)c1)nn2C1Cc2ccccc2C1 [Compound No. 102, 5-[4-amino-1-(2,3-dihydro-1H-inden-2-yl)-1H-pyrazolo[3,4-d]pyrimidin-3-yl]-2-fluoro-3-(trifluoromethyl)phenol] | −5.59 % Inh | 57.81 % Inh | –
19 | Nc1ncnc2c1c(-c1cc(O)c(Cl)c(Cl)c1)cn2C1Cc2ccccc2C1 [Compound No. 107, 5-[4-amino-7-(2,3-dihydro-1H-inden-2-yl)-7H-pyrrolo[2,3-d]pyrimidin-5-yl]-2,3-dichlorophenol] | −5.41 % Inh | 45.49 % Inh | –
20 | Nc1ncnc2c1c(-c1ccc(Br)c(O)c1)nn2C1Cc2ccccc2C1 [compound 2, 5-(4-amino-1-(2,3-dihydro-1H-inden-2-yl)-1H-pyrazolo[3,4-d]pyrimidin-3-yl)-2-bromophenol] | – | – | IC50 (ITK): > 100 µM
21 | C=CC(=O)N1CC(n2nc(-c3cc(O)cc(F)c3)c3c(N)ncnc32)Cc2cc(C)ccc21 (stereo not shown) [compound 31, 1-(3-(4-amino-3-(3-fluoro-5-hydroxyphenyl)-1H-pyrazolo[3,4-d]pyrimidin-1-yl)-6-methyl-3,4-dihydroquinolin-1(2H)-yl)prop-2-en-1-one] | 17.1 % Inh | 0.74 % Inh | IC50 (ITK): > 100 µM; IC50 (PI3Kγ): 6.46 µM
